Results: patent US9492460B2, “Carbazole compounds useful as bromodomain inhibitors” (Bristol-Myers Squibb Company, priority 2013, dated 2016)

target: T1, bromodomain BRD4 (44-168), BRD4 (333-460), and BRD4 (1-477 or 44-460) (Homo sapiens, UniProt O60885); assay: Time Resolved Fluorescence Resonance Energy Transfer (TR-FRET) binding assay; conditions: one of the FRET assays described
T1 construct: BRD4(44-168), BRD4(333-460), BRD4(44-460), BRD4(1-477), O60885-1; fused on or other part: N-terminal BirA biotinylation motif, biotinylated; The TVMV-cleavable His6 tag is removed, except in some BRD4(44-460) runs detected with anti-His terbium cryptate

IC50 | SMILES
< 0.5 µM | CCNC(=O)c1cc(-c2c(C)noc2C)cc2c1c1cc(N3CCCOC3=O)ccc1n2Cc1ccccc1 [Example 165, 9-benzyl-2-(3,5-dimethyl-4-isoxazolyl)-N-ethyl-6-(2-oxo-1,3-oxazinan-3-yl)-9H-carbazole-4-carboxamide]
< 0.05 µM | Cc1noc(C)c1-c1cc(C(N)=O)c2c3ccc(C(C)C)cc3n([C@H](c3ccccc3)C3CCOCC3)c2c1 [Example 229, 2-(Dimethyl-1,2-oxazol-4-yl)-9-[(S)-oxan-4-yl(phenyl)methyl]-7-(propan-2-yl)-9H-carbazole-4-carboxamide]
< 0.05 µM | Cc1noc(C)c1-c1cc(C#N)c2c3ccc(C(=O)O)cc3n(C(c3ccccc3)c3ccccc3)c2c1 [Example 193, 5-Cyano-7-(3,5-dimethyl-4-isoxazolyl)-9-(diphenylmethyl)-9H-carbazole-2-carboxylic acid]
< 0.05 µM | Cc1noc(C)c1-c1cc(C(N)=O)c2c3cc(NC(=O)N4CCOCC4)ccc3n(Cc3ccccc3)c2c1 [Example 146, 9-benzyl-2-(3,5-dimethyl-4-isoxazolyl)-6-((4-morpholinylcarbonyl)amino)-9H-carbazole-4-carboxamide]
< 0.05 µM | CNC(=O)c1cc(-c2c(C)noc2C)cc2c1c1cc(C(=O)N3CC(F)C3)ccc1n2Cc1c(F)cccc1F [Example 105]
< 0.05 µM | COc1ccc2c(c1)c1c(C(N)=O)cc(-c3c(C)noc3C)cc1n2C(C)c1ccccc1 (single isomer, unassigned) [Example 179, 2-(3,5-dimethyl-4-isoxazolyl)-6-methoxy-9-(1-phenylethyl)-9H-carbazole-4-carboxamide]
< 0.05 µM | Cc1noc(C)c1-c1cc(C(N)=O)c2c3cc(C(=O)N4CCC(C)(O)CC4)ccc3n(Cc3ccccc3)c2c1 [Example 51]
< 0.05 µM | COC(=O)c1ccc2c3c(C#N)cc(-c4c(C)noc4C)cc3n(C(c3ccccc3)c3ccccc3)c2c1 [Example 191, Methyl 5-cyano-7-(3,5-dimethyl-4-isoxazolyl)-9-(diphenylmethyl)-9H-carbazole-2-carboxylate]
< 0.05 µM | Cc1noc(C)c1-c1cc(C(N)=O)c2c3cc(S(C)(=O)=O)ccc3n(Cc3ccccc3)c2c1 [Example 181, 9-benzyl-2-(3,5-dimethyl-4-isoxazolyl)-6-(methylsulfonyl)-9H-carbazole-4-carboxamide]
< 0.05 µM | Cc1noc(C)c1-c1cc(C(N)=O)c2c3cc(N4CCCOC4=O)ccc3n(C(C)c3ccccc3)c2c1 (stereo not drawn) [Example 158, 2-(3,5-dimethyl-4-isoxazolyl)-6-(2-oxo-1,3-oxazinan-3-yl)-9-(1-phenylethyl)-9H-carbazole-4-carboxamide]
< 0.05 µM | COC(=O)c1ccc2c3c(C(N)=O)cc(-c4c(C)noc4C)cc3n(Cc3ccccc3)c2c1 [Example 183, Methyl 9-benzyl-5-carbamoyl-7-(3,5-dimethyl-4-isoxazolyl)-9H-carbazole-2-carboxylate]
< 0.05 µM | Cc1noc(C)c1-c1cc(C(N)=O)c2c3cc(C(=O)N4CC(C)OC(C)C4)ccc3n(Cc3ccccc3Cl)c2c1 (stereo not drawn) [Example 33]
< 0.05 µM | Cc1noc(C)c1-c1cc(C(N)=O)c2c3cc(C(=O)N4CCO[C@H](C)C4)ccc3n(Cc3ccccc3)c2c1 [Example 62]
< 0.05 µM | Cc1noc(C)c1-c1cc(C(N)=O)c2c3cc(N4CCCOC4=O)ccc3n(Cc3ccc(F)cc3)c2c1 [Example 151, 2-(3,5-dimethyl-4-isoxazolyl)-9-(4-fluorobenzyl)-6-(2-oxo-1,3-oxazinan-3-yl)-9H-carbazole-4-carboxamide]
< 0.05 µM | Cc1noc(C)c1-c1cc(C#N)c2c3ccc(C(=O)O)cc3n(Cc3ccccc3)c2c1 [Example 186, 9-Benzyl-5-cyano-7-(3,5-dimethyl-4-isoxazolyl)-9H-carbazole-2-carboxylic acid]
< 7.5 µM | Cc1noc(C)c1-c1ccc2c3cc(C(=O)N4CC(C)OC(C)C4)ccc3n(Cc3ccccc3F)c2c1 (stereo not drawn) [Example 16]
< 0.05 µM | CNC(=O)c1cc(-c2c(C)noc2C)cc2c1c1cc(C(=O)N3CC(F)C3)ccc1n2C(C)c1ccccc1 (stereo not drawn) [Example 113]
< 0.5 µM | CNC(=O)c1cc(-c2c(C)noc2C)cc2c1c1cc(C(=O)N3CC(F)(F)C3)ccc1n2Cc1ccc(Cl)cc1 [Example 100, 9-(4-chlorobenzyl)-6-(3,3-difluoroazetidine-1-carbonyl)-2-(3,5-dimethylisoxazol-4-yl)-N-methyl-9H-carbazole-4-carboxamide]
< 0.05 µM | Cc1noc(C)c1-c1cc(C(N)=O)c2c3cc(NC(=O)C4CCOCC4)ccc3n(Cc3ccccc3)c2c1 [Example 145, 9-benzyl-2-(3,5-dimethyl-4-isoxazolyl)-6-((tetrahydro-2H-pyran-4-ylcarbonyl)amino)-9H-carbazole-4-carboxamide]
< 0.5 µM | Cc1noc(C)c1-c1ccc2c3cc(C(=O)N4CC(C)OC(C)C4)ccc3n(CC(C)C)c2c1 (stereo not drawn) [Example 4]
< 0.05 µM | Cc1noc(C)c1-c1cc(C(N)=O)c2c3cc(C(=O)N4CCCC(C)(C)C4)ccc3n(Cc3ccccc3)c2c1 [Example 72]

IC50 | SMILES
< 0.05 µM | CC(=O)N(C)c1ccc2c(c1)c1c(C(N)=O)cc(-c3c(C)noc3C)cc1n2Cc1ccccc1 [Example 131, 9-benzyl-2-(3,5-dimethylisoxazol-4-yl)-6-(N-methylacetamido)-9H-carbazole-4-carboxamide]
< 0.05 µM | CCCNC(=O)c1cc(-c2c(C)noc2C)cc2c1c1cc(C(=O)N3CC(F)C3)ccc1n2Cc1ccc(F)cc1 [Example 124, 2-(3,5-dimethyl-4-isoxazolyl)-6-((3-fluoro-1-azetidinyl)carbonyl)-9-(4-fluorobenzyl)-N-propyl-9H-carbazole-4-carboxamide]
< 0.05 µM | Cc1noc(C)c1-c1cc(C(N)=O)c2c3cc(C(=O)N4CC(O)C4)ccc3n(Cc3ccccc3)c2c1 [Example 53]
< 0.05 µM | Cc1csc(Cn2c3ccc(C(=O)N4CCC(F)C4)cc3c3c(C(N)=O)cc(-c4c(C)noc4C)cc32)n1 (stereo not drawn) [Example 83]
< 0.05 µM | Cc1nnn(C)c1-c1cc(C(N)=O)c2c3ccc(C(C)(C)O)cc3n(C(c3ccccc3)C3CCOCC3)c2c1 (single isomer, unassigned) [Example 232, 2-(1,4-Dimethyl-1H-1,2,3-triazol-5-yl)-7-(2-hydroxypropan-2-yl)-9-(phenyl(tetrahydro-2H-pyran-4-yl)methyl)-9H-carbazole-4-carboxamide]
< 0.05 µM | Cc1noc(C)c1-c1cc(C(N)=O)c2c3cc(C(=O)N4CC(F)(F)C4)ccc3n(C(C)c3ccccc3)c2c1 (single isomer, unassigned) [Example 97, 6-((3,3-difluoro-1-azetidinyl)carbonyl)-2-(3,5-dimethyl-4-isoxazolyl)-9-(1-phenylethyl)-9H-carbazole-4-carboxamide]
< 0.05 µM | Cc1noc(C)c1-c1cc(C(N)=O)c2c3cc(C(=O)N4CCC(F)C4)ccc3n(Cc3ccc(Cl)cc3)c2c1 (stereo not drawn) [Example 80]
< 0.05 µM | Cc1noc(C)c1-c1cc(C(N)=O)c2c3ccc(C(C)(C)O)cc3n(C(c3ccccc3)C3CCOCC3)c2c1 (single isomer, unassigned) [Example 198]
< 0.05 µM | Cc1noc(C)c1-c1cc(C(=O)NC2CC2)c2c3cc(C(=O)N4CC(F)C4)ccc3n(Cc3ccc(F)cc3)c2c1 [Example 125, N-cyclopropyl-2-(3,5-dimethyl-4-isoxazolyl)-6-((3-fluoro-1-azetidinyl)carbonyl)-9-(4-fluorobenzyl)-9H-carbazole-4-carboxamide]
< 0.5 µM | CNC(=O)c1cc(-c2c(C)noc2C)cc2[nH]c3ccc(C(=O)N4CC(F)C4)cc3c12 [Example 101, 2-(3,5-dimethyl-4-isoxazolyl)-6-((3-fluoro-1-azetidinyl)carbonyl)-N-methyl-9H-carbazole-4-carboxamide]
< 0.05 µM | Cc1noc(C)c1-c1cc(C(N)=O)c2c3cc(C(=O)N4CC[C@H](F)C4)ccc3n(Cc3c(F)cccc3F)c2c1 [Example 79, 9-(2,6-difluorobenzyl)-2-(3,5-dimethyl-4-isoxazolyl)-6-(((3S)-3-fluoro-1-pyrrolidinyl)carbonyl)-9H-carbazole-4-carboxamide]
< 0.5 µM | Cc1noc(C)c1-c1ccc2c(c1)[nH]c1ccc(C(=O)N3CCOCC3)cc12 [Example 1, 2-(3,5-dimethyl-4-isoxazolyl)-6-(4-morpholinylcarbonyl)-9H-carbazole]
< 0.05 µM | Cc1noc(C)c1-c1cc(C(N)=O)c2c3cc(C(=O)N4CC(F)C4)ccc3n(Cc3ccc(Cl)cc3F)c2c1 [Example 87]
< 0.05 µM | CNC(=O)c1cc(-c2c(C)noc2C)cc2c1c1cc(C(=O)N3CC(F)C3)ccc1n2Cc1ccccn1 [Example 116, 2-(3,5-dimethylisoxazol-4-yl)-6-(3-fluoroazetidine-1-carbonyl)-N-methyl-9-(pyridin-2-ylmethyl)-9H-carbazole-4-carboxamide]
< 0.05 µM | Cc1noc(C)c1-c1cc(C(N)=O)c2c3cc(NCC#N)ccc3n(Cc3ccccc3)c2c1 [Example 138, 9-benzyl-6-((cyanomethyl)amino)-2-(3,5-dimethyl-4-isoxazolyl)-9H-carbazole-4-carboxamide]
< 0.05 µM | COC1CN(C(=O)c2ccc3c(c2)c2c(C(N)=O)cc(-c4c(C)noc4C)cc2n3Cc2ccccc2)C1 [Example 52]
< 0.05 µM | Cc1noc(C)c1-c1cc(C(N)=O)c2c3cc(C(=O)N4CC(C)OC(C)C4)ccc3n(C(C)c3ccccc3)c2c1 (stereo not drawn) [Example 39]
< 0.05 µM | Cc1noc(C)c1-c1cc(C(N)=O)c2c3cc(C(=O)N4CCC(O)CC4)ccc3n(Cc3ccccc3)c2c1 [Example 67]
< 0.05 µM | Cc1noc(C)c1-c1cc(C(N)=O)c2c3cc(C(=O)N4CC(F)C4)ccc3n(Cc3ccc(F)cc3)c2c1 [Example 93]
< 7.5 µM | CCNC(=O)c1cc(-c2c(C)noc2C)cc2c1c1cc(N3CCCOC3=O)ccc1n2Cc1ccc(F)cc1 [Example 155, 2-(3,5-dimethyl-4-isoxazolyl)-N-ethyl-9-(4-fluorobenzyl)-6-(2-oxo-1,3-oxazinan-3-yl)-9H-carbazole-4-carboxamide]
< 0.05 µM | CNC(=O)c1cc(-c2c(C)noc2C)cc2c1c1cc(C(=O)N3CC(F)C3)ccc1n2Cc1cccc(F)c1 [Example 104]
